Reference: article PMC10574767, “Extractives from Artemisia afra with Anti-Bacterial and Anti-Fungal Properties” (Plants, 2023)
≈ marks a conversion by molar mass, not a printed value.

Assays:
[1] = tested on: one fungal and five bacterial strains; test: Serial dilution microplate MIC, whole panel; assay type: cell-based; conditions: isolated compounds, all tested strains; highest concentration 250 µg/mL; read-out: MIC against all tested microorganisms
Method: The MIC value of the plant extracts and isolated compounds against one fungal and five bacterial strains (Salmonella Typhimurium ATCC 39183, Escherichia coli ATCC 25922, Pseudomonas aeruginosa ATCC 27853, Staphylococcus aureus ATCC 29213, Enterococcus faecalis ATCC 29212, and fungi culture, Candida albicans ATCC 10231) was assessed in triplicate using the serial dilution microplate method; acetone and DMSO were used as solvents. Bacterial cultures were grown in Mueller Hinton broth (Sigma Aldrich, St. Louis, MO, USA) overnight and adjusted to McFarland standard 1 (1 × 10^8 CFU/mL). Then, 100 µL of samples were transferred into the first well of a sterile 96-well microtiter plate, which contained 100 µL of water and a 1:1 serial dilution with sterilized distilled water was carried out. In each well, 100 µL of appropriately adjusted fungal or bacterial cultures were added, and the bacteria were subjected to final concentrations of 250–3.9 μg/mL for pure compounds and 2.5–0.02 mg/mL for crude extracts. Amphotericin-B and Gentamicin (Virbac, Carros, France) served as positive controls for fungi and bacteria, respectively. For sterility, water served as control, while acetone served as a negative control. The microplates were then incubated for 24 h at 37 °C. Following incubation, 40 µL of 0.2 mg/mL p-iodonitrotetrazolium violet (INT, Sigma Aldrich) dissolved in water (hot) was added to the wells before being incubated at 37 °C for another 2 h. In the case of fungi, the INT was added before incubation. The MIC was measured visually as the lowest concentration of the compounds/extracts that inhibited proliferation.

[2] = tested on: C. albicans; parameters: method as in ref 35 = [35]; 35. Naika H.R. Krishna V. Harish B.G. Khadeer Ahamed B.M. Mahadevan K.M. Antimicrobial Activity of Bioactive Constituents Isolated from the Leaves of Naravelia zeylanica (L.) DC Int. J. Res. Pharm. Bi; conditions: cited from earlier work
[3] = tested on: Bacillus subtilis; parameters: method as in ref 36 = [36]; 36. Koay Y.C. Wong K.C. Hasnah O. Ibrahim E.M.S. Mohammad Z.A. Chemical constituents and biological activities of Strobilanthes crispus L. Rec. Nat. Prod. 2013 7 59 64; conditions: cited from earlier work
[4] = tested on: Staphylococcus aureus; parameters: method as in ref 36 = [36]; 36. Koay Y.C. Wong K.C. Hasnah O. Ibrahim E.M.S. Mohammad Z.A. Chemical constituents and biological activities of Strobilanthes crispus L. Rec. Nat. Prod. 2013 7 59 64; conditions: cited from earlier work
[5] = tested on: Escherichia coli; parameters: method as in ref 36 = [36]; 36. Koay Y.C. Wong K.C. Hasnah O. Ibrahim E.M.S. Mohammad Z.A. Chemical constituents and biological activities of Strobilanthes crispus L. Rec. Nat. Prod. 2013 7 59 64; conditions: cited from earlier work
[6] = tested on: Salmonella Typhimurium; parameters: method as in ref 36 = [36]; 36. Koay Y.C. Wong K.C. Hasnah O. Ibrahim E.M.S. Mohammad Z.A. Chemical constituents and biological activities of Strobilanthes crispus L. Rec. Nat. Prod. 2013 7 59 64; conditions: cited from earlier work
[7] = tested on: Aspergillus niger, Aspergillus flavus, Rhizoctonia phaseoli, and Penicillium chrysogenum; parameters: method as in ref 38 = [38]; 38. ur Rahman U. Durrani S. Ubaidullah S.A. ur Rahman S. Anti-pyretic activity of taraxerol acetate KJMS 2016 9 165; conditions: 1 mg/disc; cited from earlier work
[8] = tested on: Aspergillus niger; parameters: method as in PMID 19844829, PMID 35453556; conditions: cited from earlier work

CC1(C)CC[C@]2(C)CC=C3[C@]4(C)CC[C@H]5C(C)(C)[C@@H](O)CC[C@]5(C)[C@H]4CC[C@@]3(C)[C@@H]2C1 [Compound 3β-Taraxerol, 3β-taraxerol]
MIC [1]: > 250 µg/mL
Activity against C. albicans [2]: no activity
MIC Bacillus subtilis [3]: 15.6 µg/mL (≈ 36.6 µM)
MIC Staphylococcus aureus [4]: 15.6 µg/mL (≈ 36.6 µM)
MIC Escherichia coli [5]: 62.5 µg/mL (≈ 146 µM)
MIC Salmonella Typhimurium [6]: 62.5 µg/mL (≈ 146 µM)
Anti-fungal activity against four fungi [7]: weak anti-fungal activities
MIC Aspergillus niger [8]: 100 µg/mL (≈ 234 µM)
